Results taken from patent US9771406B2, “Peptidic dual GLP-1/glucagon receptor agonists derived from exendin-4” (priority 2014, dated 2017).
Where two headings read alike, the source gives them in different places.

Experiments:
[1] = biological target: T1, human GLP-1 receptor (Homo sapiens, UniProt P43220); assay: cAMP response of HEK-293 cells stably expressing human GLP-1 receptor (HTRF); type: cell-based; details: Table 6; cAMP formation; read-out: EC50 hGLP-1R
T1 construct: expressed in transfected cells; host or cells: HEK-293
T1 sequence (P43220 24-463): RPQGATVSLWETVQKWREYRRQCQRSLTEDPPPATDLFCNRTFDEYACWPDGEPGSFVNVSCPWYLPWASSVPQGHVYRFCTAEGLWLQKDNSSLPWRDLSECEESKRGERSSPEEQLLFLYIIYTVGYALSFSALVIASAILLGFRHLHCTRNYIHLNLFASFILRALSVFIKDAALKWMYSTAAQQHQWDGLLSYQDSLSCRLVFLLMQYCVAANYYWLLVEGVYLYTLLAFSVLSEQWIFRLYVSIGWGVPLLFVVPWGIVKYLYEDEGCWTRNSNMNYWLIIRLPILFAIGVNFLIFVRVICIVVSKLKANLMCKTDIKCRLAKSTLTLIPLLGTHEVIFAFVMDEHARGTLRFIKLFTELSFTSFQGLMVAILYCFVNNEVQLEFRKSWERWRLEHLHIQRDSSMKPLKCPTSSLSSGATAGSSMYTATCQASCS
Description: (§1) cAMP content of cells was determined using a kit from Cisbio Corp. (cat. no. 62AM4PEC) based on HTRF (Homogenous Time Resolved Fluorescence). For preparation, cells were split into T175 culture flasks and grown overnight to near confluency in medium (DMEM/10% FBS). Medium was then removed and cells washed with PBS lacking calcium and magnesium, followed by proteinase treatment with accutase (Sigma-Aldrich cat. no. A6964). Detached cells were washed and resuspended in assay buffer (1×HBSS; 20 mM HEPES, 0.1% BSA, 2 mM IBMX) and cellular density determined. They were then diluted to 400000 cells/ml and 25 μl-aliquots dispensed into the wells of 96-well plates. For measurement, 25 μl of test compound in assay buffer was added to the wells, followed by incubation for 30 minutes at room temperature.
(§2) Potencies of peptidic compounds at the GLP-1, glucagon and GIP receptors were determined by exposing cells expressing human glucagon receptor (hGCG R), human GIP (hGIP R) and human GLP-1 receptor (hGLP-1 R) to the listed compounds at increasing concentrations and measuring the formed cAMP as described in Methods.

[2] = biological target: T2, human glucagon receptor (Homo sapiens, UniProt P47871); assay: cAMP response of HEK-293 cells stably expressing human glucagon receptor (HTRF); type: cell-based; details: Table 6; cAMP formation; read-out: EC50 hGlucagon-R
T2 construct: expressed in transfected cells; host or cells: HEK-293
T2 sequence (P47871 26-477): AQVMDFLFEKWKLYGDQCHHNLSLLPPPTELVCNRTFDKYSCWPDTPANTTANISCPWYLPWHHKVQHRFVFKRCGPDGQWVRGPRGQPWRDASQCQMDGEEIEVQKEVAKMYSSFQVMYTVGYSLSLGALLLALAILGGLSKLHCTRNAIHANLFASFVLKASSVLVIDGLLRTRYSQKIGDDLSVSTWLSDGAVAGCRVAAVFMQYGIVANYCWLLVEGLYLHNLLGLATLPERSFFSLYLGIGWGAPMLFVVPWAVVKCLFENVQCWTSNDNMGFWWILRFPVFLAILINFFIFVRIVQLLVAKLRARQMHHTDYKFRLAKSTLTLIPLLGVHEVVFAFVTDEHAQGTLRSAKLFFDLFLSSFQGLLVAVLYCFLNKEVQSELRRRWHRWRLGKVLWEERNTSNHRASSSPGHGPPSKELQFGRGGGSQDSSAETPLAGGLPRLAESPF
Description: as §1, §2

[3] = biological target: T3, human GIP receptor (Homo sapiens, UniProt P48546); assay: cAMP response of HEK-293 cells stably expressing human GIP receptor (HTRF); type: cell-based; details: Table 6; cAMP formation; read-out: EC50 hGIP-R
T3 construct: expressed in transfected cells; host or cells: HEK-293
T3 sequence (P48546 22-466): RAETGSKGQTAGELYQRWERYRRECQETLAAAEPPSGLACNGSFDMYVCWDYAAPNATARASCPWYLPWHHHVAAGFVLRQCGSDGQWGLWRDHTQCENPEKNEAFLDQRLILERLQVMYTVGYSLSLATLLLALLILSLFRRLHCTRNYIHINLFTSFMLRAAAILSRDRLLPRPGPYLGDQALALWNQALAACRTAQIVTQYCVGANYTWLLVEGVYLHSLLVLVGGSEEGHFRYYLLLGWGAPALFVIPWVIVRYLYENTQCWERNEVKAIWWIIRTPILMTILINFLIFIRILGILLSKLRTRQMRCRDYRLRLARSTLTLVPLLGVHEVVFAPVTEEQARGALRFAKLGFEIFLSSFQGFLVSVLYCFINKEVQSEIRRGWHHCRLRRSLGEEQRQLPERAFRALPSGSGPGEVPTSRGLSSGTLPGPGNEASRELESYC
Description: as §1, §2

[4] = Solubility testing of exendin-4 derivatives (HPLC-UV of supernatant); type: physicochemical
Description: Prior to the testing of solubility and stability of a peptide batch, its purity (HPLC-UV) was determined. […] Therefore, solutions from solid samples were prepared in different buffer systems with a concentration of 10 mg/mL compound based on the previously determined % purity. HPLC-UV was performed after 2 h of gentle agitation from the supernatant, which was obtained by 20 min of centrifugation at 4500 rpm. […] This analysis also served as starting point (t0) for the stability testing.

[5] = Stability testing in solution, 7 days at 40° C. (% remaining peptide, HPLC-UV); type: physicochemical
Description: After that time course, the sample was centrifuged for 20 min at 4500 rpm and 0.2 μL of the supernatant were analysed with HPLC-UV.
For determination of the amount of the remaining peptide, the peak areas of the target compound at t0 and t7 were compared, resulting in “% remaining peptide”, following the equation % remaining peptide=[(peak area peptide t7)×100]/peak area peptide t0.
The stability is expressed as “% remaining peptide”.

CCCCCCCCCCCCCCCCCC(=O)N[C@@H](CCC(=O)NCCCC[C@H](NC(=O)[C@H](CCC(N)=O)NC(=O)[C@H](CCCCN)NC(=O)[C@H](CO)NC(=O)[C@H](CC(C)C)NC(=O)[C@H](CC(=O)O)NC(=O)[C@H](CO)NC(=O)[C@@H](NC(=O)[C@H](Cc1ccccc1)NC(=O)[C@@H](NC(=O)CNC(=O)[C@H](Cc1c[nH]cn1)NC(=O)C(C)(C)NC(=O)[C@@H](N)Cc1c[nH]cn1)[C@@H](C)O)[C@@H](C)O)C(=O)N[C@@H](CCC(=O)O)C(=O)N[C@@H](CCC(=O)O)C(=O)N[C@@H](CCC(=O)O)C(=O)N[C@@H](C)C(=O)N[C@H](C(=O)N[C@@H](CCCNC(=N)N)C(=O)N[C@@H](CC(C)C)C(=O)N[C@@H](Cc1ccccc1)C(=O)N[C@H](C(=O)N[C@@H](CCC(=O)O)C(=O)N[C@@H](Cc1c[nH]c2ccccc12)C(=O)N[C@@H](CC(C)C)C(=O)N[C@@H](CCCCN)C(=O)N[C@@H](C)C(=O)NCC(=O)NCC(=O)N1CCC[C@H]1C(=O)N[C@@H](CO)C(=O)N[C@@H](CO)C(=O)NCC(=O)N[C@@H](C)C(=O)N1CCC[C@H]1C(=O)N1CCC[C@H]1C(=O)N1CCC[C@H]1C(=O)N[C@@H](CO)C(N)=O)[C@@H](C)CC)C(C)C)C(=O)O [compound 7]
EC50 [1]: 0.0065 nM
EC50 [2]: 0.0058 nM
EC50 [3]: 0.0256 nM

CCCCCCCCCCCCCCCCCC(=O)N[C@@H](CCC(=O)NCCCC[C@H](NC(=O)[C@H](CCC(N)=O)NC(=O)[C@H](CCCCN)NC(=O)[C@H](CO)NC(=O)[C@H](CC(C)C)NC(=O)[C@H](CC(=O)O)NC(=O)[C@H](CO)NC(=O)[C@@H](NC(=O)[C@H](Cc1ccccc1)NC(=O)[C@@H](NC(=O)CNC(=O)[C@H](Cc1c[nH]cn1)NC(=O)[C@@H](CO)NC(=O)[C@@H](N)Cc1c[nH]cn1)[C@@H](C)O)[C@@H](C)O)C(=O)N[C@@H](CCC(=O)O)C(=O)N[C@@H](CCC(=O)O)C(=O)N[C@@H](CCC(=O)O)C(=O)N[C@@H](C)C(=O)N[C@H](C(=O)N[C@@H](CCCNC(=N)N)C(=O)N[C@@H](CC(C)C)C(=O)N[C@@H](Cc1ccccc1)C(=O)N[C@H](C(=O)N[C@@H](CCC(=O)O)C(=O)N[C@@H](Cc1c[nH]c2ccccc12)C(=O)N[C@@H](CC(C)C)C(=O)N[C@@H](CCCCN)C(=O)N[C@@H](C)C(=O)NCC(=O)NCC(=O)N1CCC[C@H]1C(=O)N[C@@H](CO)C(=O)N[C@@H](CO)C(=O)NCC(=O)N[C@@H](C)C(=O)N1CCC[C@H]1C(=O)N1CCC[C@H]1C(=O)N1CCC[C@H]1C(=O)N[C@@H](CO)C(N)=O)[C@@H](C)CC)C(C)C)C(=O)O [compound 9]
solubility at 2 h ([4]; pH 4.5): > 5 mg/mL
solubility at 2 h ([4]; pH 7.4): > 5 mg/mL

CCCCCCCCCCCCCCCCCC(=O)N[C@@H](CCC(=O)NCCCC[C@H](NC(=O)[C@H](CCC(N)=O)NC(=O)[C@H](CCCCN)NC(=O)[C@H](CO)NC(=O)[C@H](CC(C)C)NC(=O)[C@H](CC(=O)O)NC(=O)[C@H](CO)NC(=O)[C@@H](NC(=O)[C@H](Cc1ccccc1)NC(=O)[C@@H](NC(=O)CNC(=O)[C@H](Cc1c[nH]cn1)NC(=O)[C@H](CO)NC(=O)[C@@H](N)Cc1c[nH]cn1)[C@@H](C)O)[C@@H](C)O)C(=O)N[C@@H](CCC(=O)O)C(=O)N[C@@H](CCC(=O)O)C(=O)N[C@@H](CCC(=O)O)C(=O)N[C@@H](C)C(=O)N[C@H](C(=O)N[C@@H](CCCNC(=N)N)C(=O)N[C@@H](CC(C)C)C(=O)N[C@@H](Cc1ccccc1)C(=O)N[C@H](C(=O)N[C@@H](CCC(=O)O)C(=O)N[C@@H](Cc1c[nH]c2ccccc12)C(=O)N[C@@H](CC(C)C)C(=O)N[C@@H](CCCCN)C(=O)N[C@@H](C)C(=O)NCC(=O)NCC(=O)N1CCC[C@H]1C(=O)N[C@@H](CO)C(=O)N[C@@H](CO)C(=O)NCC(=O)N[C@@H](C)C(=O)N1CCC[C@H]1C(=O)N1CCC[C@H]1C(=O)N1CCC[C@H]1C(=O)N[C@@H](CO)C(N)=O)[C@@H](C)CC)C(C)C)C(=O)O [compound 10]
solubility at 2 h ([4]; pH 4.5, target concentration 10 mg/ml, 2 h agitation, read-out: Solubility (pH 4.5)): > 5 mg/mL
solubility at 2 h ([4]; pH 7.4, target concentration 10 mg/ml, 2 h agitation, read-out: Solubility (pH 7.4)): > 5 mg/mL
Stability (pH 4.5), % remaining peptide ([5]; pH 4.5, 7 days at 40° C. in solution): 92.7%
Stability (pH 7.4), % remaining peptide ([5]; pH 7.4, 7 days at 40° C. in solution): 93.4%

CCCCCCCCCCCCCCCC(=O)N[C@@H](CCC(=O)N[C@@H](CCC(=O)NCCCC[C@H](NC(=O)[C@H](CCC(N)=O)NC(=O)[C@H](CCCCN)NC(=O)[C@H](CO)NC(=O)[C@H](CC(C)C)NC(=O)[C@H](CC(=O)O)NC(=O)[C@H](CO)NC(=O)[C@@H](NC(=O)[C@H](Cc1ccccc1)NC(=O)[C@@H](NC(=O)CNC(=O)[C@H](Cc1c[nH]cn1)NC(=O)[C@@H](CO)NC(=O)[C@@H](N)Cc1c[nH]cn1)[C@@H](C)O)[C@@H](C)O)C(=O)N[C@@H](CCC(=O)O)C(=O)N[C@@H](CCC(=O)O)C(=O)N[C@@H](CCC(=O)O)C(=O)N[C@@H](C)C(=O)N[C@H](C(=O)N[C@@H](CCCNC(=N)N)C(=O)N[C@@H](CC(C)C)C(=O)N[C@@H](Cc1ccccc1)C(=O)N[C@H](C(=O)N[C@@H](CCC(=O)O)C(=O)N[C@@H](Cc1c[nH]c2ccccc12)C(=O)N[C@@H](CC(C)C)C(=O)N[C@@H](CCCCN)C(=O)N[C@@H](C)C(=O)NCC(=O)NCC(=O)N1CCC[C@H]1C(=O)N[C@@H](CO)C(=O)N[C@@H](CO)C(=O)NCC(=O)N[C@@H](C)C(=O)N1CCC[C@H]1C(=O)N1CCC[C@H]1C(=O)N1CCC[C@H]1C(=O)N[C@@H](CO)C(N)=O)[C@@H](C)CC)C(C)C)C(=O)O)C(=O)O [compound 13]
EC50 [2]: 0.0225 nM
EC50 [3]: 0.079 nM

CCCCCCCCCCCCCCCC(=O)N[C@@H](CCC(=O)NCCCC[C@H](NC(=O)[C@H](CCC(N)=O)NC(=O)[C@H](CCCCN)NC(=O)[C@H](CO)NC(=O)[C@H](CC(C)C)NC(=O)[C@H](CC(=O)O)NC(=O)[C@H](CO)NC(=O)[C@@H](NC(=O)[C@H](Cc1ccccc1)NC(=O)[C@@H](NC(=O)CNC(=O)[C@H](Cc1c[nH]cn1)NC(=O)[C@@H](CO)NC(=O)[C@@H](N)Cc1c[nH]cn1)[C@@H](C)O)[C@@H](C)O)C(=O)N[C@@H](CCC(=O)O)C(=O)N[C@@H](CCC(=O)O)C(=O)N[C@@H](CCC(=O)O)C(=O)N[C@@H](C)C(=O)N[C@H](C(=O)N[C@@H](CCCNC(=N)N)C(=O)N[C@@H](CC(C)C)C(=O)N[C@@H](Cc1ccccc1)C(=O)N[C@H](C(=O)N[C@@H](CCC(=O)O)C(=O)N[C@@H](Cc1c[nH]c2ccccc12)C(=O)N[C@@H](CC(C)C)C(=O)N[C@@H](CCCCN)C(=O)N[C@@H](C)C(=O)NCC(=O)NCC(=O)N1CCC[C@H]1C(=O)N[C@@H](CO)C(=O)N[C@@H](CO)C(=O)NCC(=O)N[C@@H](C)C(=O)N1CCC[C@H]1C(=O)N1CCC[C@H]1C(=O)N1CCC[C@H]1C(=O)N[C@@H](CO)C(N)=O)[C@@H](C)CC)C(C)C)C(=O)O [compound 14]
EC50 [1]: 0.0041 nM
EC50 [2]: 0.0584 nM
EC50 [3]: 0.437 nM

CCCCCCCCCCCCCCCC(=O)N[C@@H](CCC(=O)N[C@@H](CCC(=O)NCCCC[C@H](NC(=O)[C@H](CCC(N)=O)NC(=O)[C@H](CCCCN)NC(=O)[C@H](CO)NC(=O)[C@H](CC(C)C)NC(=O)[C@H](CC(=O)O)NC(=O)[C@H](CO)NC(=O)[C@@H](NC(=O)[C@H](Cc1ccccc1)NC(=O)[C@@H](NC(=O)CNC(=O)[C@H](CCC(N)=O)NC(=O)C(C)(C)NC(=O)[C@@H](N)Cc1c[nH]cn1)[C@@H](C)O)[C@@H](C)O)C(=O)N[C@@H](CCC(=O)O)C(=O)N[C@@H](CCC(=O)O)C(=O)N[C@@H](CCC(=O)O)C(=O)N[C@@H](C)C(=O)N[C@H](C(=O)N[C@@H](CCCNC(=N)N)C(=O)N[C@@H](CC(C)C)C(=O)N[C@@H](Cc1ccccc1)C(=O)N[C@H](C(=O)N[C@@H](CCC(=O)O)C(=O)N[C@@H](Cc1c[nH]c2ccccc12)C(=O)N[C@@H](CC(C)C)C(=O)N[C@@H](CCCCN)C(=O)N[C@@H](C)C(=O)NCC(=O)NCC(=O)N1CCC[C@H]1C(=O)N[C@@H](CO)C(=O)N[C@@H](CO)C(=O)NCC(=O)N[C@@H](C)C(=O)N1CCC[C@H]1C(=O)N1CCC[C@H]1C(=O)N1CCC[C@H]1C(=O)N[C@@H](CO)C(N)=O)[C@@H](C)CC)C(C)C)C(=O)O)C(=O)O [compound 24]
EC50 [1]: 0.0045 nM
